Data on 23 compounds can be found in PubChem BioAssay AID316 (DTP/NCI, 2004).

Values joined by “and” are separate entries in the source; they are usually repeats but may differ in a detail not shown here. Equal values may be shown once. Toxic doses and inconclusive results are not listed.

In the experiment the test system is P1534 leukemia ip, CD2F1 mice, survival T/C. The experiment in a line: NCI In Vivo Anticancer Drug Screen. Data for tumor model P1534 Leukemia (intraperitoneal) in CD2F1 (CDF1) mice. The following applies: higher = longer survival. The method, then:
The antitumor activity of compounds was measured in mice bearing transplantable tumors. Survival or tumor size were measured and the results are expressed as the measurement made in the treated group (T) divided by the measurement made in the vehicle treated control group (C). The tumor model used in this assay is P1534 Leukemia (intraperitoneal) in CD2F1 (CDF1) mice

The mark [1] stands for this setting: endpoint: mean survival time, dose: 8.0 mg/kg/injection, schedule: Q01DX010 (ip), vehicle: saline.
Where [2] appears, read: endpoint: mean survival time, dose: 12.5 mg/kg/injection, schedule: Q01DX010 (sc), vehicle: steriod suspending solution.
Where [3] appears, read: endpoint: mean survival time, dose: 1.56 mg/kg/injection, schedule: Q01DX010 (ip), vehicle: saline.
Setting [4] is: endpoint: mean survival time, dose: 3.13 mg/kg/injection, schedule: Q01DX010 (ip), vehicle: saline.
The mark [5] stands for this setting: endpoint: mean survival time, dose: 6.25 mg/kg/injection, schedule: Q01DX010 (ip), vehicle: saline.
Where [6] appears, read: endpoint: mean survival time, dose: 12.5 mg/kg/injection, schedule: Q01DX010 (ip), vehicle: saline.
The mark [7] stands for this setting: endpoint: mean survival time, dose: 25.0 mg/kg/injection, schedule: Q01DX010 (ip), vehicle: saline.
The mark [8] stands for this setting: endpoint: mean survival time, dose: 50.0 mg/kg/injection, schedule: Q01DX010 (ip), vehicle: saline.
The mark [9] stands for this setting: endpoint: mean survival time, dose: 100.0 mg/kg/injection, schedule: Q01DX010 (ip), vehicle: saline.
Setting [10] is: endpoint: mean survival time, dose: 200.0 mg/kg/injection, schedule: Q01DX010 (ip), vehicle: saline.
The mark [11] stands for this setting: endpoint: mean survival time, dose: 20.0 mg/kg/injection, schedule: Q01DX010 (ip), vehicle: saline.
[12] abbreviates: endpoint: mean survival time, dose: 40.0 mg/kg/injection, schedule: Q01DX010 (ip), vehicle: saline.
The mark [13] stands for this setting: endpoint: mean survival time, dose: 400.0 mg/kg/injection, schedule: Q01DX010 (ip), vehicle: saline.
[14] abbreviates: endpoint: mean survival time, dose: 62.5 mg/kg/injection, schedule: Q01DX010 (ip), vehicle: saline.
Setting [15] is: endpoint: mean survival time, dose: 125.0 mg/kg/injection, schedule: Q01DX010 (ip), vehicle: saline.

In the case of `CN(Cc1cnc2nc(N)nc(N)c2n1)c1ccc(C(=O)N[C@@H](CCC(=O)O)C(=O)O)cc1`, the T/C (endpoint: median survival time, dose: 0.5 mg/kg/injection, schedule: Q01DX009 (ip), vehicle: sodium bicarbonate) is 158 % of control and the T/C (endpoint: median survival time, dose: 1.0 mg/kg/injection, schedule: Q01DX009 (ip), vehicle: sodium bicarbonate) is 198 % of control.
As to `c1ccc(CNc2ncnc3[nH]ncc23)cc1`, the T/C runs as follows: under setting [1], 100 % of control; (endpoint: mean survival time, dose: 16.0 mg/kg/injection, schedule: Q01DX010 (ip), vehicle: saline) 110 % of control; (endpoint: mean survival time, dose: 32.0 mg/kg/injection, schedule: Q01DX010 (ip), vehicle: saline) 120 % of control and 90 % of control; (endpoint: mean survival time, dose: 64.0 mg/kg/injection, schedule: Q01DX010 (ip), vehicle: saline) 105 % of control and 110 % of control.
Regarding `CNC(C)C(O)c1ccccc1` (stereo not given), the T/C is 96 % of control (endpoint: mean survival time, dose: 37.5 mg/kg/injection, schedule: Q01DX010 (ip), vehicle: saline) and 92 % of control (endpoint: mean survival time, dose: 75.0 mg/kg/injection, schedule: Q01DX010 (ip), vehicle: saline).
Turning to `C[C@]12C=CC(=O)C=C1CC[C@@H]1[C@@H]2C(=O)C[C@@]2(C)[C@H]1CC[C@]2(O)C(=O)CO`, the T/C is 99 % of control (endpoint: mean survival time, dose: 3.13 mg/kg/injection, schedule: Q01DX010 (sc), vehicle: steriod suspending solution); 95 % of control (endpoint: mean survival time, dose: 6.25 mg/kg/injection, schedule: Q01DX010 (sc), vehicle: steriod suspending solution); 105 % of control and 109 % of control and 100 % of control (endpoint: mean survival time, dose: 10.0 mg/kg/injection, schedule: Q01DX005 (sc), vehicle: steriod suspending solution); 88 % of control under setting [2]; 107 % of control and 108 % of control and 110 % of control (endpoint: mean survival time, dose: 50.0 mg/kg/injection, schedule: Q01DX005 (sc), vehicle: steriod suspending solution); 108 % of control and 99 % of control and 100 % of control (endpoint: mean survival time, dose: 100.0 mg/kg/injection, schedule: Q01DX005 (sc), vehicle: steriod suspending solution). Besides, the T/C runs as follows: (endpoint: mean survival time, dose: 200.0 mg/kg/injection, schedule: Q01DX005 (sc), vehicle: steriod suspending solution) 86 % of control and 102 % of control; (endpoint: mean survival time, dose: 250.0 mg/kg/injection, schedule: Q01DX005 (sc), vehicle: steriod suspending solution) 90 % of control and 93 % of control.
Consider `NCCCCCCNCCCCCCN`, for which the T/C is 100 % of control under setting [3]; 100 % of control under setting [4]; 100 % of control under setting [5]; 92 % of control and 100 % of control under setting [6].
As to `O=C(NCCCCC(NC(=O)c1ccccc1)C(=O)NCCCCCCNCCCCCCNC(=O)C(CCCCNC(=O)c1ccccc1)NC(=O)c1ccccc1)c1ccccc1` (stereo not given), the T/C was 100 % of control under setting [7], 110 % of control under setting [8], 100 % of control under setting [9] and 106 % of control under setting [10].
As to `CC1=NN(c2ccccc2)C(=O)C1`, the T/C is 94 % of control (endpoint: mean survival time, dose: 150.0 mg/kg/injection, schedule: Q01DX010 (ip), vehicle: water) and 91 % of control (endpoint: mean survival time, dose: 300.0 mg/kg/injection, schedule: Q01DX010 (ip), vehicle: water).
`COC(=O)C1=COC(C)C2CN3CCc4c([nH]c5ccccc45)C3CC12` (stereo not given): the T/C under setting [11] was 96 % of control; the T/C under setting [12] is 93 % of control; the T/C (endpoint: mean survival time, dose: 80.0 mg/kg/injection, schedule: Q01DX010 (ip), vehicle: saline) was 96 % of control.
For the compound `COc1ccc2c(=O)cc(-c3ccccc3)n(C)c2c1`, the T/C runs as follows: under setting [8], 103 % of control; under setting [9], 103 % of control; under setting [10], 103 % of control; under setting [13], 96 % of control.
For `CC/C(=C(/CC)c1ccc(O)cc1)c1ccc(O)cc1`, the T/C runs as follows: under setting [2], 95 % of control and 100 % of control; (endpoint: mean survival time, dose: 25.0 mg/kg/injection, schedule: Q01DX010 (sc), vehicle: steriod suspending solution) 95 % of control and 100 % of control; (endpoint: mean survival time, dose: 50.0 mg/kg/injection, schedule: Q01DX010 (sc), vehicle: steriod suspending solution) 95 % of control and 100 % of control; (endpoint: mean survival time, dose: 100.0 mg/kg/injection, schedule: Q01DX010 (sc), vehicle: steriod suspending solution) 90 % of control and 100 % of control.
Regarding `O=NN(CCCl)C(=O)NCCCl`, the T/C was 265 % of control and 290 % of control under setting [5]; 150 % of control and 170 % of control under setting [6].
Regarding `CC(=O)NNC(=O)c1ccccn1`, the T/C (endpoint: mean survival time, dose: 110.0 mg/kg/injection, schedule: Q01DX010 (ip), vehicle: water) was 100 % of control; the T/C (endpoint: mean survival time, dose: 120.0 mg/kg/injection, schedule: Q01DX010 (ip), vehicle: water) was 107 % of control; the T/C (endpoint: mean survival time, dose: 140.0 mg/kg/injection, schedule: Q01DX010 (ip), vehicle: water) was 98 % of control; the T/C (endpoint: mean survival time, dose: 160.0 mg/kg/injection, schedule: Q01DX010 (ip), vehicle: water) is 112 % of control.
Take `CC(=O)c1ccc[nH]1`: the T/C under setting [14] was 100 % of control and the T/C under setting [15] was 96 % of control.
Regarding `COC(=O)C1=COC(C)C2CN3CCc4c([nH]c5cc(OC)c(OC)cc45)C3CC12` (stereo not given), the T/C is, setting by setting: under setting [8], 96 % of control; under setting [9], 100 % of control; under setting [10], 100 % of control.
On to `C[n+]1c2ccccc2nc2c(N)cc(N)cc21`, for which the T/C (endpoint: mean survival time, dose: 5.2 mg/kg/injection, schedule: Q01DX010 (ip), vehicle: saline) is 114 % of control.
Turning to `Nc1c(Br)cc2c(c1Br)Cc1cc([N+](=O)[O-])ccc1-2`, the T/C is 115 % of control (endpoint: mean survival time, dose: 15.6 mg/kg/injection, schedule: Q01DX010 (ip), vehicle: saline); 107 % of control and 110 % of control (endpoint: mean survival time, dose: 31.3 mg/kg/injection, schedule: Q01DX010 (ip), vehicle: saline); 107 % of control under setting [14]; 110 % of control and 115 % of control under setting [15]; 107 % of control (endpoint: mean survival time, dose: 250.0 mg/kg/injection, schedule: Q01DX010 (ip), vehicle: saline).
In the case of `CC(=O)O[C@H]1C(=O)[C@@]2(C)[C@H]([C@H](OC(=O)c3ccccc3)[C@]3(O)C[C@H](OC(=O)[C@H](O)[C@@H](NC(=O)c4ccccc4)c4ccccc4)C(C)=C1C3(C)C)[C@]1(OC(C)=O)CO[C@@H]1C[C@@H]2O`, the T/C is 300 % of control (endpoint: mean survival time, dose: 1.88 mg/kg/injection, schedule: Q01DX010 (ip), vehicle: saline); 300 % of control (endpoint: mean survival time, dose: 3.75 mg/kg/injection, schedule: Q01DX010 (ip), vehicle: saline); 250 % of control (endpoint: mean survival time, dose: 7.5 mg/kg/injection, schedule: Q01DX010 (ip), vehicle: saline); 89 % of control (endpoint: mean survival time, dose: 15.0 mg/kg/injection, schedule: Q01DX010 (ip), vehicle: saline).
With `C[C@@H]1C[C@@H]([C@H](O)CC2CC(=O)NC(=O)C2)C(=O)[C@@H](C)C1`, the T/C is, setting by setting: (endpoint: mean survival time, dose: 5.0 mg/kg/injection, schedule: Q01DX010 (ip), vehicle: saline) 112 % of control and 100 % of control; (endpoint: mean survival time, dose: 10.0 mg/kg/injection, schedule: Q01DX010 (ip), vehicle: saline) 111 % of control and 112 % of control; under setting [11], 111 % of control; under setting [12], 105 % of control.
For `CC[C@H](CC[C@@H](C)[C@H]1CC[C@H]2[C@@H]3CC=C4C[C@@H](O)CC[C@]4(C)[C@H]3CC[C@]12C)C(C)C`, the T/C is 100 % of control (endpoint: mean survival time, dose: 50.0 mg/kg/injection, schedule: Q01DX010 (ip), vehicle: other); 100 % of control (endpoint: mean survival time, dose: 100.0 mg/kg/injection, schedule: Q01DX010 (ip), vehicle: other); 106 % of control (endpoint: mean survival time, dose: 200.0 mg/kg/injection, schedule: Q01DX010 (ip), vehicle: other); 108 % of control (endpoint: mean survival time, dose: 300.0 mg/kg/injection, schedule: Q01DX010 (ip), vehicle: other).
Regarding `C[C@@H](N)[C@@H](O)c1ccccc1`, the T/C was 103 % of control (endpoint: mean survival time, dose: 0.39 mg/kg/injection, schedule: Q01DX010 (ip), vehicle: saline); 100 % of control (endpoint: mean survival time, dose: 0.78 mg/kg/injection, schedule: Q01DX010 (ip), vehicle: saline); 100 % of control under setting [3]; 103 % of control under setting [4].
Take `O=C(NCCCCCCNC(=O)OCc1ccccc1)OCc1ccccc1`: the T/C under setting [8] was 100 % of control, the T/C under setting [9] is 96 % of control, the T/C under setting [10] was 92 % of control and the T/C under setting [13] is 100 % of control.
For the compound `O=C(NCCCCC(NC(=O)OCc1ccccc1)C(=O)NCCCCCCNCCCCCCNC(=O)C(CCCCNC(=O)OCc1ccccc1)NC(=O)OCc1ccccc1)OCc1ccccc1` (stereo not given), the T/C reads like this: under setting [6], 107 % of control; under setting [7], 114 % of control; under setting [8], 114 % of control.
As to `O=C(Nc1ccc(C2=NCCCN2)cc1)c1ccc(C(=O)Nc2ccc(C3=NCCCN3)cc2)cc1`, the T/C (endpoint: mean survival time, dose: 1.0 mg/kg/injection, schedule: Q01DX010 (ip), vehicle: saline) is 109 % of control; the T/C (endpoint: mean survival time, dose: 2.0 mg/kg/injection, schedule: Q01DX010 (ip), vehicle: saline) was 113 % of control and 118 % of control; the T/C under setting [1] is 150 % of control.
